Reference: the supplement of paper PMC10307832

Legend:
Assay in all cases: relative viability (nuclei count vs DMSO), 5 days (fraction); higher = more cells survive
Palbociclib + Luminespib = compound: CC(=O)c1c(C)c2cnc(Nc3ccc(N4CCNCC4)cn3)nc2n(C2CCCC2)c1=O [Palbociclib] + CCNC(=O)c1noc(-c2cc(C(C)C)c(O)cc2O)c1-c1ccc(CN2CCOCC2)cc1 [Luminespib] (partner 0.01 µM)
In short: (§1)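 The day after seeding in 1536-well plates, lung cancer cell lines were treated by pin tool with a single drug, or with a fixed anchor-drug dose together with five library-drug doses (not always all listed) in √10 steps. After 5 days, a combined fix-and-stain solution (final 0.05% Triton X-100, 1% formaldehyde, 1 ug/ml Hoechst) was added. Nuclei counted on 4× images gave relative viability as treated counts over vehicle counts, reported as the median of duplicate plates.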

Palbociclib + OSI-027 = compound: CC(=O)c1c(C)c2cnc(Nc3ccc(N4CCNCC4)cn3)nc2n(C2CCCC2)c1=O [Palbociclib] + COc1cccc2cc(-c3nc([C@H]4CC[C@H](C(=O)O)CC4)n4ncnc(N)c34)[nH]c12 [OSI-027] (partner 0.5 µM)
In short: as §1

Palbociclib + Trametinib = compound: CC(=O)c1c(C)c2cnc(Nc3ccc(N4CCNCC4)cn3)nc2n(C2CCCC2)c1=O [Palbociclib] + CC(=O)Nc1cccc(-n2c(=O)n(C3CC3)c(=O)c3c(Nc4ccc(I)cc4F)n(C)c(=O)c(C)c32)c1 [Trametinib] (partner 0.02 µM)
In short: as §1

Palbociclib + Foretinib = compound: CC(=O)c1c(C)c2cnc(Nc3ccc(N4CCNCC4)cn3)nc2n(C2CCCC2)c1=O [Palbociclib] + COc1cc2c(Oc3ccc(NC(=O)C4(C(=O)Nc5ccc(F)cc5)CC4)cc3F)ccnc2cc1OCCCN1CCOCC1 [Foretinib] (partner 0.25 µM)
In short: as §1

Row | Cell Line | relative viability (Palbociclib + Luminespib; first compound 0.01 µM) | relative viability (Palbociclib + Luminespib; first compound 0.1 µM) | relative viability (Palbociclib + Luminespib; first compound 0.3162 µM) | relative viability (Palbociclib + Luminespib; first compound 1 µM) | relative viability (Palbociclib + OSI-027; first compound 0.01 µM) | relative viability (Palbociclib + OSI-027; first compound 0.1 µM) | relative viability (Palbociclib + OSI-027; first compound 0.3162 µM) | relative viability (Palbociclib + OSI-027; first compound 1 µM) | relative viability (Palbociclib + Trametinib; first compound 0.01 µM) | relative viability (Palbociclib + Trametinib; first compound 0.03162 µM) | relative viability (Palbociclib + Trametinib; first compound 0.1 µM) | relative viability (Palbociclib + Trametinib; first compound 0.3162 µM) | relative viability (Palbociclib + Trametinib; first compound 1 µM) | relative viability (Palbociclib + Foretinib; first compound 0.01 µM) | relative viability (Palbociclib + Foretinib; first compound 0.1 µM) | relative viability (Palbociclib + Foretinib; first compound 0.3162 µM) | relative viability (Palbociclib + Foretinib; first compound 1 µM) | relative viability (Palbociclib + Luminespib; first compound 0.03162 µM) | relative viability (Palbociclib + OSI-027; first compound 0.03162 µM) | relative viability (Palbociclib + Foretinib; first compound 0.03162 µM)
1 | NCI-H596 | 0.91 | 0.968 | 0.958 | 1.04 | 0.681 | 0.761 | 0.649 | 0.809 | 0.793 | 0.632 | 0.875 | 0.757 | 0.954 | 0.996 | 0.836 | 0.821 | 0.953 | – | – | –
2 | NCI-H1975 | 0.161 | 0.102 | 0.198 | 0.193 | 0.809 | 0.665 | 0.685 | 0.518 | 0.402 | 0.372 | 0.309 | 0.353 | 0.236 | 0.932 | 0.899 | 0.828 | 0.81 | 0.189 | 0.673 | 0.853
3 | EKVX | 0.856 | 0.919 | 0.841 | 0.605 | 0.713 | 0.6 | 0.575 | 0.366 | 0.3 | – | 0.247 | 0.251 | 0.244 | 0.907 | 0.748 | 0.757 | 0.463 | 0.745 | 0.664 | 0.412
4 | NCI-H460 | 0.0282 | 0.0309 | 0.0231 | 0.026 | 0.708 | 0.366 | 0.376 | 0.159 | 0.0946 | 0.116 | 0.0577 | 0.185 | 0.0348 | 1.01 | 0.886 | 0.8 | 0.536 | 0.0413 | 0.531 | 0.969
5 | NCI-H23 | 0.216 | 0.219 | 0.196 | 0.236 | 0.576 | 0.502 | 0.463 | 0.408 | 0.447 | 0.295 | 0.42 | 0.39 | 0.289 | 0.954 | 1.11 | 0.962 | 0.69 | 0.214 | – | –
6 | NCI-H2009 | 1.04 | 0.817 | 0.701 | 0.519 | 0.64 | 0.331 | 0.297 | 0.194 | 0.307 | 0.296 | 0.194 | 0.223 | 0.141 | 1.2 | 0.998 | 0.728 | 0.495 | 0.897 | 0.481 | 1
7 | NCI-H2405 | 0.818 | 0.613 | 0.843 | 0.534 | 0.586 | 0.492 | 0.483 | 0.396 | 0.614 | 0.509 | 0.531 | 0.555 | 0.447 | 1.02 | 0.884 | 0.822 | 0.675 | 0.893 | 0.487 | 0.972
8 | NCI-H1395 | 0.661 | 0.631 | 0.668 | 0.587 | 0.64 | 0.536 | 0.54 | 0.415 | 1.08 | 0.884 | 0.816 | 0.854 | 0.731 | 0.867 | 0.846 | 0.828 | 0.713 | 0.561 | 0.55 | 0.876
9 | HOP-62 | 0.905 | 0.91 | 0.716 | 0.675 | 0.793 | 0.697 | 0.624 | 0.446 | 0.431 | – | 0.36 | 0.382 | 0.288 | 0.881 | 1.02 | 0.958 | 0.735 | 0.844 | – | –
10 | NCI-H522 | 1.2 | 1.19 | 1.19 | 1.18 | 0.772 | 0.777 | 0.765 | 0.765 | 0.818 | 0.576 | 0.776 | 0.797 | 0.853 | – | – | – | – | – | 0.606 | –
11 | NCI-H1944 | 0.683 | 0.626 | 0.666 | 0.516 | 0.461 | 0.335 | 0.325 | 0.213 | 0.399 | 0.389 | 0.396 | 0.37 | 0.342 | 0.915 | 0.768 | 0.756 | 0.577 | 0.742 | 0.336 | 0.807
12 | NCI-H1793 | 0.17 | 0.243 | 0.193 | 0.2 | 0.262 | 0.238 | 0.223 | 0.186 | 0.438 | 0.431 | 0.44 | 0.322 | 0.281 | 0.689 | 0.713 | 0.617 | 0.355 | – | – | –
13 | SK-MES-1 | 0.755 | 0.587 | 0.42 | 0.376 | 0.528 | 0.345 | 0.314 | 0.186 | 0.562 | 0.463 | 0.469 | 0.432 | 0.313 | 1.09 | 0.781 | 0.687 | 0.502 | 0.462 | 0.364 | 0.834
14 | NCI-H1650 | 0.178 | 0.186 | 0.186 | 0.172 | 0.701 | 0.522 | 0.481 | 0.403 | 0.623 | 0.575 | 0.39 | 0.58 | 0.411 | 1.3 | 0.954 | 0.934 | 0.65 | 0.211 | 0.404 | 0.808
